Assays:
[1] = system: lipogenic gene expression; assay: Relative hepatic mRNA expression by real-time RT-PCR, long-term treatment; type: in vivo, C57BL/6J female mice; details: liver, HFD mice
Protocol: Animal studies were approved by Institutional Animal Care and Use Committee of McGuire Veterans Affairs Medical Center and were conducted in accordance with the Declaration of Helsinki, the Guide for the Care and Use of Laboratory Animals, and all applicable regulations. To examine the effect of 25HC3S on diet-induced lipid accumulation in sera and liver, 8-week-old female C57BL/6J mice (Charles River, Wilmington, Mass.) were randomly assigned to three groups: the first control group was fed a chow diet; the high fat diet (HFD) group was fed a HFD (Harlan Teklad, Madison, Wis.) containing 42% kcal from fat, 43% kcal from carbohydrate, 15% kcal from protein and 0.2% cholesterol; and the high cholesterol diet (HCD) group was fed a 2% cholesterol diet with 18% kcal from fat, 58% kcal from carbohydrate and 24% kcal from protein for 10 weeks, respectively. All mice were housed under identical conditions in an aseptic facility and given free access to water and food. At the end of each period, the mice were intraperitoneally injected with vehicle solution (ethanol/PBS; Vehicle), 25HC (25 mg/kg), or 25HC3S (25 mg/kg) for 2 times and fasted over night for acute treatment (n=15-17 for each group) or once every three days for 6 weeks (n=16 for each group) and fasted 5 hrs for long-term treatment; and blood samples were collected. Serum triglyceride, total cholesterol, high density lipoprotein-cholesterol, glucose, alkaline phosphatase (ALK), alanine aminotransferase (ALT), and aspartate aminotransferase (AST) were measured using standard enzymatic techniques in the clinical laboratory at McGuire Veterans Affairs Medical Center. Lipoprotein profiles in sera were analyzed by HPLC as following described.
Total RNA was isolated with SV Total RNA Isolation Kit (Promega, Madison, Wis.), which included DNase treatment. Total RNA, 2 μg, was used for the first-strand cDNA synthesis as recommended by the manufacturer (Invitrogen, Carlsbad, Calif.). Real-time RT-PCR was performed using SYBR Green as indicator on ABI 7500 Fast Real-Time PCR System (Applied Biosystems, Foster City, Calif.). All primer/probe sets for real-time PCR were TaqMan gene expression assays (Applied Biosystems, Foster City, Calif.). Amplifications of β-actin and GAPDH were used as internal controls. Relative messenger RNA (mRNA) expression was quantified with the comparative cycle threshold (Ct) method and was expressed as 2^−ΔΔCt. Suitable primers were utilized.

PCNA = PCNA labeling index in liver histology; type: in vivo, C57BL/6 mice; details: liver specimen of 25HC3S treated mice (5 mg/kg, 48 h)
Protocol: Metabolism. (Accepted)]. […] Antigen retrieval was performed by microwaving of the sections in citrate buffer (PH 6.0) for 10 min. Sections were incubated overnight at […] with the primary monoclonal antibody against proliferating cell nuclear antigen (PCNA) (ab29, Abcam, Cambridge, Mass.). After washing with PBS, immobilized antibodies were detected by the avidin-biotin-peroxidase complex technique (Vectastain@ ABC Kit, Vector Laboratories, Burlingame, Calif.). DAB (Vector Laboratories, Burlingame, Calif.) and haematoxylin (Sigma-Aldrich, St. Louis, Mo.) was used as the chromogen and nuclear counterstain, respectively. […] The quantitation of PCNA expression was expressed as the PCNA labeling index.

[2] = system: genes related to cell cycle progression; assay: RTqPCR of cell cycle-related genes in mouse liver after 25HC3S (Example 3); type: in vivo, C57BL/6 mice; details: doses lower than 5 mg/kg, 48 h, dose-dependent
Protocol: PCR assays were performed in 96-well optical reaction plates using the ABI 7500 Fast Real-Time PCR System (Applied Biosystems, Foster City, Calif.). PCR assays were conducted in triplicate wells for each sample. Baseline values of amplification plots were set automatically and threshold values were kept constant to obtain normalized cycle times and linear regression data. The following reaction mixture per well was used: 2×SYBR Green PCR Master Mix (10 ul), primer at the final concentration of 10 uM (1 ul), RNAse-free water (4 ul), cDNA (5 ul, 10 ng). For all experiments the following PCR conditions were used: denaturation at 95° C. for 10 minutes, followed by 40 cycles at 95° C. for 15 seconds, then at 60° C. for 60 seconds. Quantitative normalization of cDNA in each sample was performed using 18S gene as an internal control. Relative quantification was performed using the ΔΔCT method. Suitable primers were used for RtqPCR.

[3] = system: primary rat hepatocytes (PRH); assay: Western blot in primary rat hepatocytes (Example 4); type: cell-based; details: Ad-Control-infected group, T0901317 1.5 μM or 25HC 3 μM
Protocol: PRH were prepared as previously described (24). Briefly, parenchymal cells (3.5×10^6) were inoculated in 60-mm plastic Petri dishes coated with rat tail collagen. The plates contained 3 ml of Williams E culture media supplemented with thyroxine (1 μM), dexamethasone (0.1 μM), and penicillin (100 units/ml). Three hours after plating, culture medium was removed and fresh medium was added. Cells were then infected with Ad-SULT2B1b at a multiplicity (MOI) of 10 plaque forming units/cell (pfu/cell) or 100 nM of siRNA-SULT2B1b (ON-TARGET plus siRNA of rat SULT2B1b, Thermo Scientific Dharmacon, Lafayette, Colo.) as previously described (31). The Ad-Control and siRNA-Control (ON-TARGET plus negative control siRNA) were used as controls, respectively. Twenty four hours after infection, cells were treated with T0901317 (1.5 μM) or 25HC (3 μM) for another 24 hours. The cells were harvested at the timepoints as indicated in the text.
Cell lysates were prepared from frozen mouse liver tissues or PRH, and 50 μg of the total proteins were separated by 10% SDS-PAGE, transferred to polyvinylidene difluoride membrane (Millipore, Eschbom, Germany). Specific protein was probed with specific antibodies against PCNA, human SULT2B1b (Santa Cruz Biotechnology, Santa Cruz, Calif.), LXRα (Abcam, Cambridge, Mass.), ATP-binding cassette transporters 1 (ABCA1) (Abcam, Cambridge, Mass.), and SREBP1 (Santa Cruz Biotechnology, Santa Cruz, Calif.). β-Actin (Sigma-Aldrich, St. Louis, Mo.) was used as a loading control. Western analysis was performed by methods known in the art.

[4] = once every three days for 6 weeks, mean ± SD, n=5-6

SMILES: CC(CCCC(C)(C)O)C1CCC2C3CC=C4CC(OS(=O)(=O)O)CCC4(C)C3CCC12C (centres unmarked) [25HC3S, 25-hydroxycholesterol-3-sulfate]
- decrease of ACC1 mRNA level ([1]; long-term treatment): 41%
- decrease of CD36 mRNA ([1]; long-term treatment): 49%
- decrease of FAS mRNA level ([1]; long-term treatment): 24%
- decrease of GPAM mRNA ([1]; long-term treatment): 19%
- decrease of SREBP-1c mRNA level ([1]; long-term treatment): 23%
- suppression of IL1α expression ([1]; long-term treatment): 53%
- suppression of IL1β expression ([1]; long-term treatment): 58%
- suppression of TNFα expression ([1]; long-term treatment): 47%
- ABCA1 relative hepatic mRNA [1, 4]: 0.80 ± 0.12
- ABCG1 relative hepatic mRNA [1, 4]: 0.72 ± 0.19
- ACC1 relative hepatic mRNA [1, 4]: 0.63 ± 0.08
- CD36 relative hepatic mRNA [1, 4]: 0.47 ± 0.08
- FAS relative hepatic mRNA [1, 4]: 0.73 ± 0.16
- GPAM relative hepatic mRNA [1, 4]: 0.81 ± 0.10
- IL1α relative hepatic mRNA [1, 4]: 0.54 ± 0.14
- IL1β relative hepatic mRNA [1, 4]: 0.58 ± 0.27
- IκBα relative hepatic mRNA [1, 4]: 1.48 ± 0.38
- LDLR relative hepatic mRNA [1, 4]: 0.79 ± 0.13
- LXRα relative hepatic mRNA [1, 4]: 0.95 ± 0.24
- MTTP relative hepatic mRNA [1, 4]: 0.78 ± 0.09
- NFκB relative hepatic mRNA [1, 4]: 0.86 ± 0.22
- PLTP relative hepatic mRNA [1, 4]: 0.60 ± 0.11
- SRB1 relative hepatic mRNA [1, 4]: 0.87 ± 0.20
- SREBP-1c relative hepatic mRNA [1, 4]: 0.76 ± 0.08
- TNFα relative hepatic mRNA [1, 4]: 0.60 ± 0.34
- PCNA labeling index (PCNA): 12%
- hepatic mRNA of cMyc, cyclin A, FoxM1b, CDC25b [2]: significant up-regulation

SMILES: C[C@H](CCCC(C)(C)O)[C@H]1CC[C@H]2[C@@H]3CC=C4C[C@@H](O)CC[C@]4(C)[C@H]3CC[C@]12C [25HC, 25-hydroxycholesterol]
- LXR response gene expressions [3]: significantly increased
- PCNA expression [3]: decreased

Source: patent publication US9034859B2, “Sulfated oxysterol and oxysterol sulfation by hydroxysterol sulfotransferase promote lipid homeostasis and liver proliferation” (Virginia Commonwealth University, priority 2011, dated 2015)
